Assay results: PubChem BioAssay (NCI)
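Method: 48-hour compound exposure of cells in 96-well plates, five concentrations, linear interpolation of endpoints. GI50: concentration for 50% inhibition of growth. Definition used: TGI = concentration required for complete inhibition of growth.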

How the values were obtained:
Test in all cases: NCI tumour cell line growth inhibition, 48 h
786-0 renal = system: 786-0 renal
A498 renal = system: A498 renal
A549 NSCLC = system: A549 NSCLC
ACHN renal = system: ACHN renal
BT-549 breast = system: BT-549 breast
CAKI-1 renal = system: CAKI-1 renal
CCRF-CEM leukemia = system: CCRF-CEM leukemia
COLO 205 colon = system: COLO 205 colon
DU-145 prostate = system: DU-145 prostate
EKVX NSCLC = system: EKVX NSCLC
HCC-2998 colon = system: HCC-2998 colon
HCT-116 colon = system: HCT-116 colon
HCT-15 colon = system: HCT-15 colon
HL-60(TB) leukemia = system: HL-60(TB) leukemia
HOP-62 NSCLC = system: HOP-62 NSCLC
HOP-92 NSCLC = system: HOP-92 NSCLC
HS 578T breast = system: HS 578T breast
HT29 colon = system: HT29 colon
IGROV1 ovarian = system: IGROV1 ovarian
K-562 leukemia = system: K-562 leukemia
KM12 colon = system: KM12 colon
LOX IMVI melanoma = system: LOX IMVI melanoma
M14 melanoma = system: M14 melanoma
MALME-3M melanoma = system: MALME-3M melanoma
MCF7 breast = system: MCF7 breast
MDA-MB-231 breast = system: MDA-MB-231 breast
MDA-MB-435 = system: MDA-MB-435
MDA-MB-468 breast = system: MDA-MB-468 breast
MOLT-4 leukemia = system: MOLT-4 leukemia
NCI-H226 lung = system: NCI-H226 lung
NCI-H23 lung = system: NCI-H23 lung
NCI-H460 lung = system: NCI-H460 lung
NCI-H522 lung = system: NCI-H522 lung
NCI/ADR-RES ovarian = system: NCI/ADR-RES ovarian
OVCAR-3 ovarian = system: OVCAR-3 ovarian
OVCAR-4 ovarian = system: OVCAR-4 ovarian
OVCAR-5 ovarian = system: OVCAR-5 ovarian
OVCAR-8 ovarian = system: OVCAR-8 ovarian
PC-3 prostate = system: PC-3 prostate
RPMI-8226 leukemia = system: RPMI-8226 leukemia
RXF 393 renal = system: RXF 393 renal
SF-268 CNS = system: SF-268 CNS
SF-295 CNS = system: SF-295 CNS
SF-539 CNS = system: SF-539 CNS
SK-MEL-2 melanoma = system: SK-MEL-2 melanoma
SK-MEL-28 melanoma = system: SK-MEL-28 melanoma
SK-MEL-5 melanoma = system: SK-MEL-5 melanoma
SK-OV-3 ovarian = system: SK-OV-3 ovarian
SN12C renal = system: SN12C renal
SNB-19 CNS = system: SNB-19 CNS
SNB-75 CNS = system: SNB-75 CNS
SR leukemia = system: SR leukemia
SW-620 colon = system: SW-620 colon
T-47D breast = system: T-47D breast
TK-10 renal = system: TK-10 renal
U251 CNS = system: U251 CNS
UACC-257 melanoma = system: UACC-257 melanoma
UACC-62 melanoma = system: UACC-62 melanoma
UO-31 renal = system: UO-31 renal

## Cc1cc2nc3c4ccccc4n(CCNCCN(C)C)c3nc2cc1C
786-0 renal
  GI50: 8.4 µM
  TGI: 22.2 µM
A498 renal
  GI50: 14.5 µM
  TGI: 29.2 µM
A549 NSCLC
  GI50: 4.67 µM
  TGI: 19.5 µM
ACHN renal
  GI50: 4.31 µM
  TGI: 17 µM
BT-549 breast
  GI50: 14.1 µM
  TGI: 28 µM
CAKI-1 renal
  GI50: 10.8 µM
  TGI: 22.7 µM
CCRF-CEM leukemia
  GI50: 11.5 µM
  TGI: 31.7 µM
COLO 205 colon
  GI50: 3.98 µM
  TGI: 17.3 µM
DU-145 prostate
  GI50: 5.69 µM
  TGI: 18.1 µM
EKVX NSCLC
  GI50: 11.1 µM
  TGI: 24.2 µM
HCC-2998 colon
  GI50: 5.47 µM
  TGI: 19.5 µM
HCT-116 colon
  GI50: 5.35 µM
  TGI: 18.8 µM
HCT-15 colon
  GI50: 5.23 µM
  TGI: 18.3 µM
HL-60(TB) leukemia
  GI50: 5.51 µM
  TGI: 20.3 µM
HOP-62 NSCLC
  GI50: 4.98 µM
  TGI: 19.8 µM
HOP-92 NSCLC
  GI50: 3.45 µM
  TGI: 22.5 µM
HS 578T breast
  GI50: 9.6 µM
  TGI: 30.7 µM
HT29 colon
  GI50: 3.84 µM
  TGI: 15.5 µM
IGROV1 ovarian
  GI50: 4.81 µM
  TGI: 18.5 µM
K-562 leukemia
  GI50: 3.35 µM
  TGI: 13.7 µM
KM12 colon
  GI50: 13.2 µM
  TGI: 26.9 µM
LOX IMVI melanoma
  GI50: 3.07 µM
  TGI: 15.3 µM
M14 melanoma
  GI50: 7.43 µM
  TGI: 23.3 µM
MALME-3M melanoma
  GI50: 9.35 µM
  TGI: 23.2 µM
MCF7 breast
  GI50: 3.27 µM
  TGI: 14.6 µM
MDA-MB-231 breast
  GI50: 6.88 µM
  TGI: 21.1 µM
MDA-MB-435
  GI50: 5.23 µM
  TGI: 17.8 µM
MDA-MB-468 breast
  GI50: 7.78 µM
  TGI: 21.3 µM
MOLT-4 leukemia
  GI50: 4.09 µM
  TGI: 15.6 µM
NCI-H226 lung
  GI50: 6.13 µM
  TGI: 26.5 µM
NCI-H23 lung
  GI50: 11.5 µM
  TGI: 26.6 µM
NCI-H460 lung
  GI50: 3.61 µM
  TGI: 13.6 µM
NCI-H522 lung
  GI50: 8.38 µM
  TGI: 23.5 µM
NCI/ADR-RES ovarian
  GI50: 8.46 µM
  TGI: 29 µM
OVCAR-3 ovarian
  GI50: 7.35 µM
  TGI: 20.5 µM
OVCAR-4 ovarian
  GI50: 4.89 µM
  TGI: 19.1 µM
OVCAR-5 ovarian
  GI50: 6.68 µM
  TGI: 19.5 µM
OVCAR-8 ovarian
  GI50: 4.66 µM
  TGI: 20.3 µM
PC-3 prostate
  GI50: 5.23 µM
  TGI: 23.2 µM
RPMI-8226 leukemia
  GI50: 3.36 µM
  TGI: 18.3 µM
RXF 393 renal
  GI50: 5.17 µM
  TGI: 18.2 µM
SF-268 CNS
  GI50: 9.33 µM
  TGI: 23.9 µM
SF-295 CNS
  GI50: 6.48 µM
  TGI: 19.6 µM
SF-539 CNS
  GI50: 4.96 µM
  TGI: 17.4 µM
SK-MEL-2 melanoma
  GI50: 12.6 µM
  TGI: 27.6 µM
SK-MEL-28 melanoma
  GI50: 7.61 µM
  TGI: 20.1 µM
SK-MEL-5 melanoma
  GI50: 12.6 µM
  TGI: 25.6 µM
SK-OV-3 ovarian
  GI50: 11.7 µM
  TGI: 29.4 µM
SN12C renal
  GI50: 4.63 µM
  TGI: 18.5 µM
SNB-19 CNS
  GI50: 7.26 µM
  TGI: 20 µM
SNB-75 CNS
  GI50: 3.33 µM
  TGI: 20.3 µM
SR leukemia
  GI50: 2.01 µM
  TGI: 5.92 µM
SW-620 colon
  GI50: 3.87 µM
  TGI: 16.2 µM
T-47D breast
  GI50: 12.2 µM
  TGI: 31.2 µM
TK-10 renal
  GI50: 8.06 µM
  TGI: 20.8 µM
U251 CNS
  GI50: 6.09 µM
  TGI: 19.7 µM
UACC-257 melanoma
  GI50: 1.98 µM
  TGI: 5.35 µM
UACC-62 melanoma
  GI50: 6.63 µM
  TGI: 19.8 µM
UO-31 renal
  GI50: 1.49 µM
  TGI: 14.6 µM
